Results: patent EP0514268A1, “Substituted amino acid azetidinyl pyridone derivatives, their preparation and use as medicines” (LABORATORIOS DEL DR. ESTEVE, S.A., priority 1991, dated 1992)
Read-outs that look alike come from different tables or passages of the source.

Columns and labels:
[1] = tested on: Citr. freundii ATCC 11606; test: Antimicrobial activity, agar dilution; assay type: cell-based, Citrobacter freundii; conditions: Agar Dextrose dilutions, 37°C, 20 heures
From the text: (§1) L'activité pharmacologique antimicrobienne de ces composés a été étudiée selon les références exposées ci-dessous.
(§2) Activité pharmacologique antimicrobienne : G.L. Daquet et Y.A. Chabbect, techniques en bactériologie, Vol. 3, Flammarion Médecine-Sciences, Paris 1972, et W.B. Hugo et A.D. Rusell, Pharmaceutical Microbiology, Blackwell Scientific Publications, London, 1977.
(§3) Milieu de culture et solvant : Agar d'antibiotiques n° 1 (Oxoid CM 327) Bouillon de triptone-soja (Oxoid CM 129) Solution Physiologique Ringer 1/4 (Oxoid BR 52) Agar Dextrose (BBL 11165)
(§4) Microorganismes : "Bacillus subtilis" ATCC 6633 "Citrobacter freundii" ATCC 112606 "Enterobacter aerogenes" ATCC 15038 "Enterobacter cloacae" ATCC 23355 "Bacillus cereus" ATCC 1178 "Escherichia coli" ATCC 10799 "Escherichia coli" ATCC 23559 "Klebsiella pneumoniae" ATCC 10031 "Proteus vulgaris" ATCC 8427 "Morg. morganii" ATCC 8019 "Pseudomonas aeruginosa" ATCC 9721 "Pseudomonas aeruginosa" ATCC 10145 "Salmonella typhimurium" ATCC 14028 "Salmonella typhimurium" ATCC 6539 "Serratia marcescens" ATCC 13880 "Shigella flexnerii" ATCC 12022 "Staphylococcusepidermis" ATCC 155-1 "Staphylococcus aureus" ATCC 25178 "Streptococcus faecalis" ATCC 10541.
(§5) Chacun des microorganismes est ensemencé par strie dans des tubes d'Agar d'antibiotiques n° 1, et mis en incubation pendant 20 heures à 37°C. Ensuite, on prend une anse de culture, on ensemence dans un bouillon de Triptone-soja et on incube pendant 20 heures à 37°C. On dilue à 1/4 la culture obtenue avec une solution physiologique Ringer, de façon à obtenir une suspension normalisée de […] pour chaque organisme.
(§6) A partir d'une solution de 100 µg/ml, chaque produit est dilué dans l'Agar Dextrose (préalablement fondu et maintenu à 50°C) par dilutions successives de façon à obtenir les concentrations suivantes : 64-32-16-8-4-2-1-0,5-0,25-0,125 µg de dérivé/ml du milieu.
(§7) Postérieurement, chaque concentration de chaque produit est répartie dans des boîtes de Petri de 10 cm de diamètre, à raison de 10 ml de milieu par boîte et autant de boîtes que de microorganismes à tester.
(§8) Une fois le milieu refroidi, les boîtes sont ensemencées avec les inoculations à raison de 0,4 ml d'inoculation par boîte. On les étend avec une anse de Driglasky et on recueille le surnageant. Les boîtes ensemencées sont incubées à 37°C pendant 20 heures.
(§9) Les résultats obtenus sont décrits dans les tableaux suivants. Les concentrations sont données en µg/ml.

[2] = Solubility in water and at pH 7.4; assay type: physicochemical
From the text: Un grand nombre des composés de l'invention manifestent une augmentation de la solubilité dans l'eau ainsi que de la solubilité à pH 7,4 lorsqu'on compare avec les composés de référence. L'augmentation de solubilité au pH physiologique peut favoriser l'absorption du produit et la solubilité élevée dans l'eau permet l'administration du composé par voie parentérale.

[3] = tested on: Kleb. pneumoniae ATCC 10031; test: Antimicrobial activity, agar dilution; assay type: cell-based, Klebsiella pneumoniae; conditions: Agar Dextrose dilutions, 37°C, 20 heures
From the text: as §1, §2, §3, §4, §5, §6, §7, §8, §9

[4] = tested on: Bacillus cereus ATCC 11778; test: Antimicrobial activity, agar dilution; assay type: cell-based; conditions: Agar Dextrose dilutions, 37°C, 20 heures
From the text: as §1, §2, §3, §4, §5, §6, §7, §8, §9

[5] = tested on: Sal. typhi ATCC 6539; test: Antimicrobial activity, agar dilution; assay type: cell-based; conditions: Salmonella enterica, 20 h, read-out: Activité pharmacologique antimicrobienne (concentrations)
From the text: as §1, §2, §3, §4, §5, §6, §7, §8, §9

[6] = tested on: Morg. morganii ATCC 8019; test: Antimicrobial activity, agar dilution; assay type: cell-based; conditions: Agar Dextrose dilutions, 37°C, 20 heures
From the text: as §1, §2, §3, §4, §5, §6, §7, §8, §9

[7] = tested on: Shigella flexnerii ATCC 12022; test: Antimicrobial activity, agar dilution; assay type: cell-based; conditions: ATCC12022, 20 h, Agar Dextrose dilutions, 37°C, 20 heures, read-out: Activité pharmacologique antimicrobienne (concentrations)
From the text: as §1, §2, §3, §4, §5, §6, §7, §8, §9

[8] = tested on: Ps. aeruginosa ATCC 9721; test: Antimicrobial activity, agar dilution; assay type: cell-based; conditions: Pseudomonas aeruginosa, ATCC9721, 20 h, Agar Dextrose dilutions, 37°C, 20 heures, read-out: Activité pharmacologique antimicrobienne (concentrations)
From the text: as §1, §2, §3, §4, §5, §6, §7, §8, §9

[9] = tested on: Escherichia coli ATCC 10799; test: Antimicrobial activity, agar dilution; assay type: cell-based; conditions: Agar Dextrose dilutions, 37°C, 20 heures
From the text: as §1, §2, §3, §4, §5, §6, §7, §8, §9

[10] = tested on: Staph. epidermidis ATCC 155-1; test: Antimicrobial activity, agar dilution; assay type: cell-based; conditions: Agar Dextrose dilutions, 37°C, 20 heures
From the text: as §1, §2, §3, §4, §5, §6, §7, §8, §9

[11] = tested on: Bacillus subtilis ATCC 6633; test: Antimicrobial activity, agar dilution; assay type: cell-based; conditions: ATCC6633, 20 h, Agar Dextrose dilutions, 37°C, 20 heures, read-out: Activité pharmacologique antimicrobienne (concentrations)
From the text: as §1, §2, §3, §4, §5, §6, §7, §8, §9

[12] = tested on: Escherichia coli ATCC 23559; test: Antimicrobial activity, agar dilution; assay type: cell-based; conditions: Agar Dextrose dilutions, 37°C, 20 heures
From the text: as §1, §2, §3, §4, §5, §6, §7, §8, §9

[13] = tested on: Proteus vulgaris ATCC 8427; test: Antimicrobial activity, agar dilution; assay type: cell-based; conditions: Agar Dextrose dilutions, 37°C, 20 heures
From the text: as §1, §2, §3, §4, §5, §6, §7, §8, §9

[14] = tested on: Ps. aeruginosa ATCC 10145; test: Antimicrobial activity, agar dilution; assay type: cell-based; conditions: Pseudomonas aeruginosa, ATCC10145, 20 h, Agar Dextrose dilutions, 37°C, 20 heures, read-out: Activité pharmacologique antimicrobienne (concentrations)
From the text: as §1, §2, §3, §4, §5, §6, §7, §8, §9

[15] = tested on: Staph. aureus ATCC 25178; test: Antimicrobial activity, agar dilution; assay type: cell-based, Staphylococcus aureus; conditions: Agar Dextrose dilutions, 37°C, 20 heures
From the text: as §1, §2, §3, §4, §5, §6, §7, §8, §9

[16] = tested on: Sal. typhimurium ATCC 14028; test: Antimicrobial activity, agar dilution; assay type: cell-based, Salmonella typhimurium; conditions: Agar Dextrose dilutions, 37°C, 20 heures
From the text: as §1, §2, §3, §4, §5, §6, §7, §8, §9

[17] = tested on: Serr. marcescens ATCC 13880; test: Antimicrobial activity, agar dilution; assay type: cell-based, Serratia marcescens; conditions: Agar Dextrose dilutions, 37°C, 20 heures
From the text: as §1, §2, §3, §4, §5, §6, §7, §8, §9

[18] = tested on: Ent. cloacae ATCC 23355; test: Antimicrobial activity, agar dilution; assay type: cell-based, Enterobacter cloacae; conditions: Agar Dextrose dilutions, 37°C, 20 heures
From the text: as §1, §2, §3, §4, §5, §6, §7, §8, §9

[19] = tested on: Ent. aerogenes ATCC 15038; test: Antimicrobial activity, agar dilution; assay type: cell-based, Enterobacter aerogenes; conditions: Klebsiella aerogenes, ATCC15038, 20 h, Agar Dextrose dilutions, 37°C, 20 heures, read-out: Activité pharmacologique antimicrobienne (concentrations)
From the text: as §1, §2, §3, §4, §5, §6, §7, §8, §9

[20] = tested on: Strep. faecalis ATCC 10541; test: Antimicrobial activity, agar dilution; assay type: cell-based, Streptococcus faecalis; conditions: Agar Dextrose dilutions, 37°C, 20 heures
From the text: as §1, §2, §3, §4, §5, §6, §7, §8, §9

With `C[C@H](N)C(=O)N[C@@H]1CN(c2nc3c(cc2F)c(=O)c(C(=O)O)cn3C2CC2)[C@H]1C` [Exemple 4aA, chlorhydratede l'acide 7-[(2S,3R)-2-méthyl-3-Ala-amino-1-azétidinyl]-1-cyclopropyl-6-fluoro-1,4-dihydro-4-oxo-1,8-naphtyridine-3-carboxylique] the “Activité pharmacologique antimicrobienne (concentrations)” value [1] was 0,5 µg/ml, the MIC ([1]; Citrobacter freundii, ATCC11606, 20 h, read-out: Activité pharmacologique antimicrobienne (concentrations)) was 0.25 µg/mL and the solubility ([2]; pH 7,4, read-out: Solubilité pH 7,4) was > 500 µg/mL. For the same compound, the solubility ([2]; water, read-out: Solubilité dans l'eau) was > 500 µg/mL, the “Activité pharmacologique antimicrobienne (concentrations)” value [3] was 0,06 µg/ml and the “Activité pharmacologique antimicrobienne (concentrations)” value ([3]; listed as 4aa) was 0,5 µg/ml. The “Activité pharmacologique antimicrobienne (concentrations)” value [4] was 0,5 µg/ml, the MIC ([4]; Bacillus cereus, ATCC11778, 20 h, read-out: Activité pharmacologique antimicrobienne (concentrations)) was 1 µg/mL and the MIC [5] was 0.5 µg/mL. For the same compound, the “Activité pharmacologique antimicrobienne (concentrations)” value [6] was 0,5 µg/ml, the “Activité pharmacologique antimicrobienne (concentrations)” value ([6]; listed as 4aa) was 2 µg/ml and the MIC [7] was 0.12 µg/mL. The MIC [8] was 4 µg/mL, the “Activité pharmacologique antimicrobienne (concentrations)” value [9] was 1 µg/ml and the MIC ([9]; Escherichia coli, ATCC10799, 20 h, read-out: Activité pharmacologique antimicrobienne (concentrations)) was 0.5 µg/mL. For the same compound, the “Activité pharmacologique antimicrobienne (concentrations)” value [10] was 1 µg/ml, the MIC ([10]; Staphylococcus epidermidis, ATCC155, 20 h, read-out: Activité pharmacologique antimicrobienne (concentrations)) was 0.5 µg/mL and the MIC [11] was 0.12 µg/mL. For the same compound, the “Activité pharmacologique antimicrobienne (concentrations)” value [12] was 0,12 µg/ml, the “Activité pharmacologique antimicrobienne (concentrations)” value ([12]; listed as 4aa) was 0,25 µg/ml and the “Activité pharmacologique antimicrobienne (concentrations)” value [13] was 2 µg/ml. The MIC ([13]; Proteus vulgaris, ATCC8427, 20 h, read-out: Activité pharmacologique antimicrobienne (concentrations)) was 1 µg/mL, the MIC [14] was 8 µg/mL and the “Activité pharmacologique antimicrobienne (concentrations)” value [15] was 0,25 µg/ml. The MIC ([15]; Staphylococcus aureus, ATCC25178, 20 h, read-out: Activité pharmacologique antimicrobienne (concentrations)) was 0.5 µg/mL, the “Activité pharmacologique antimicrobienne (concentrations)” value [16] was 1 µg/ml and the MIC ([16]; Salmonella enterica, 20 h, read-out: Activité pharmacologique antimicrobienne (concentrations)) was 0.5 µg/mL. The “Activité pharmacologique antimicrobienne (concentrations)” value [17] was 1 µg/ml, the “Activité pharmacologique antimicrobienne (concentrations)” value ([17]; listed as 4aa) was 4 µg/ml and the “Activité pharmacologique antimicrobienne (concentrations)” value [18] was 0,12 µg/ml. The “Activité pharmacologique antimicrobienne (concentrations)” value ([18]; listed as 4aa) was 0,25 µg/ml, the MIC [19] was 0.5 µg/mL and the “Activité pharmacologique antimicrobienne (concentrations)” value [20] was 8 µg/ml. The “Activité pharmacologique antimicrobienne (concentrations)” value ([20]; listed as 4aa) was 1 µg/ml.
